Data as given in patent publication US20160354300A1, “Low Viscosity Hair Care Composition” (The Procter & Gamble Company, priority 2015, published 2016).

Columns and labels:
[1] = Visual cloudiness of surfactant formulation with added agent after 20:1 dilution with water; assay type: physicochemical; design: key: Samples that appeared cloudy (turbid) within less than a day were noted as cloudy (“Yes”); Samples that did not appear cloudy (turbid) within less than a day were noted as not cloudy (“No”); conditions: 0.5 g formula, 10 ml deionized water; for Cloudy at 1:20 dilution at 2%, 4%, and/or 6%: Table 3, visual, within less than a day; for Added at 2%: cloudy at 20:1 dilution: agent at 2%; for Added at 4%: cloudy at 20:1 dilution: agent at 4%; for Added at 6%: cloudy at 20:1 dilution: agent at 6%; for Added at 8%: cloudy at 20:1 dilution: agent at 8%
Method: Now referring to Tables 3 and 4, the following surfactant formulations were made by mixing 1.6% perfume, 24% sodium undecyl sulfate (CAS#1072-24-8) active, 6% lauramidopropyl betaine (CAS#4292-10-8) active, and 60.4% deionized water which leaves 8% unfilled for the addition of the listed agents (the balance being filled in by distilled water). The agents were added at a percentage of 2%, 4%, 6%, and 8% into the above surfactant formulation. The resulting formulations were vortexed and put into oven at 60° C. overnight to form homogeneous solution. For all formulations, the surfactant, water and additives, including the added agents, were expected to be in a single phase.
The resulting formulations were weighed out in a scintillation vial combined with 10 ml of water to achieve a representative dilution during use: 0.5 g formula, 10 ml deionized water for 20:1 dilution. After the combination of the ingredients, the vial was vigorously shaken by hand and the samples were visually inspected by looking at the solution against a dark background. Samples that appeared cloudy (turbid) within less than a day were noted as cloudy (“Yes”). […] Samples that appeared cloudy at the 20:1 dilution for any of the 2%, 4% or 6% concentration of oil may be most desirable by requiring a limited amount of the agent to be added, limiting cost and trade-offs associated with higher levels.
The appearance of a cloudy formulation at 1:20 dilution at 2%, 4%, and/or 6% can signal improved deposition of surfactant soluble active agents during consumer use.

[2] = Kinematic viscosity at 40 C of surfactant base formulation with added agent (Cannon viscometer); assay type: physicochemical; conditions: for Lowest viscosity achieved (cSt): Table 1, base formulation 24% sodium undecyl sulfate, 6% lauramidopropyl betaine, 1.6% perfume, agent at 2%, 4%, 6%, 8%, 40° C.; for Kinematic viscosity at 40 C. [cSt], 2% oil: agent added at 2% to base formulation; for Kinematic viscosity at 40 C. [cSt], 4% oil: agent added at 4% to base formulation; for Kinematic viscosity at 40 C. [cSt], 6% oil: agent added at 6% to base formulation; for Kinematic viscosity at 40 C. [cSt], 8% oil: agent added at 8% to base formulation
Excerpt: Referring to Tables 1 and 2, the base formulations were made by mixing 1.6% perfume, 24% sodium undecyl sulfate (CAS#1072-24-8) active, 6% lauramidopropyl betaine (CAS#4292-10-8) active and 60.4% deionized water which leaves 8% unfilled for the addition of a viscosity reducing agent (the balance being filled in by distilled water). For all compositions, the surfactant, water and additives including viscosity reducing agents were expected to be in a single phase.
The agents from Tables 1 and 2 were added to the base formulation at a percentage of 2%, 4%, 6%, and 8% into the above surfactant solution. The subsequent formulations were vortexed and put into oven at 60° C. overnight to form homogeneous solution. The viscosities of the formulations were measured with calibrated viscometers (Size 200/350/450) from Cannon Instrument Company (2139 High Tech Road, State College, Pa., USA, 16803).
After the equilibration, the formulations were drawn to reach the starting mark with a rubber suction bulb and the flow time between the starting mark and end mark was recorded for calculation. Each formulation was measured three times to calculate average and standard deviation. Between samples, viscometer was cleaned with water and acetone to rinse off residual.
Viscosity values were calculated based on the equation:
Viscosity (mm^2/s·(cSt))=Time (s)*Constant (mm^2/s^2·(cSt/s))
The time in the above equation is the flow time recorded in the experiment and the constant numbers for each calibrated viscometer were obtained from the manuals. […]
The viscosities of the formulations are measured with calibrated viscometers (Size 200/350/450) from Cannon Instrument Company (2139 High Tech Road, State College, Pa., USA, 16803). Prior to the measurement, the formulations are equilibrated in the viscometer reservoir for 30 min at 40° C. in water bath to ensure a homogeneous temperature is reached in the system. […]

SMILES	Cloudy at 1:20 dilution at 2%, 4%, and/or 6% [1]	Added at 2%: cloudy at 20:1 dilution [1]	Lowest viscosity achieved (cSt) [2] [cSt]	Kinematic viscosity at 40 C. [cSt], 2% oil [2] [cSt]	Kinematic viscosity at 40 C. [cSt], 4% oil [2] [cSt]	Added at 4%: cloudy at 20:1 dilution [1]	Added at 6%: cloudy at 20:1 dilution [1]	Added at 8%: cloudy at 20:1 dilution [1]	Kinematic viscosity at 40 C. [cSt], 6% oil [2] [cSt]	Kinematic viscosity at 40 C. [cSt], 8% oil [2] [cSt]
CCCCCCC1C(=O)CCC1C(=O)OC (centres unmarked) [Dihyro Iso Jasmonate]	No	No	119	334.9	119.1	–	–	–	–	–
CC(C)CCOC(=O)c1ccccc1O [Isoamyl Salicylate]	Yes	No	193	460.3	193.2	Yes	–	–	–	–
CC(=O)OCCC(C)CCCC(C)C (centres unmarked) [3,7-Dimethyloctyl Acetate]	No	No	446	445.7	–	–	–	–	–	–
CCC(=O)OC1CC2CC1C1CC=CC21 (centres unmarked) [Cyclaprop]	No	No	404	404.2	–	No	–	–	–	–
CC(C)CC=C(C=O)C(C)C [2-Isopropyl-5-methyl-2-hexenal]	No	No	332	332.3	–	No	–	–	–	–
CC(C)=CCC/C(C)=C/COC(=O)Cc1ccccc1 [Geranyl Phenyl Acetate]	Yes	Yes	34	224.0	76.0	Yes	Yes	Yes	34.3	36.6
CCCCCCCCCCCCCC(=O)OC(C)C [Iso Propyl Myristate]	Yes	No	30	234.2	53.7	No	Yes	Yes	30.4	45.0
CC(=O)OCCC(C)CCC=C(C)C (centres unmarked) [Citronellyl Acetate]	No	No	363	362.7	–	–	–	–	–	–
CC1=CC=C(C(C)C)CC1 [alpha-Terpinene]	Yes	No	42	324.4	96.0	No	Yes	Yes	41.5	46.7
